The values below are quoted from earlier work in patent publication US9290492B2, “Solid forms of antibiotics” (Laboratorios Senosiain S.A. de C.V., priority 2011, dated 2016).

For the compound `COc1c(N2C[C@@H]3CCCN[C@@H]3C2)c(F)cc2c(=O)c(C(=O)O)cn(C3CC3)c12` [moxifloxacin, Moxifloxacin], the route of excretion result (in vivo) is recorded as “via the liver”. The “excreted as the unchanged drug (total)” value (of an oral or intravenous dose) was “Approximately 45%”. Besides, where the note is “of an oral or intravenous dose, feces”, the “excreted as the unchanged drug in feces” value is recorded as approximately 25%. Besides, under “of an oral or intravenous dose, urine”, the “excreted as the unchanged drug in urine” value is listed as approximately 20%.

On to `C[C@H]1COc2c(N3CCN(C)CC3)c(F)cc3c(=O)c(C(=O)O)cn1c23` [Levofloxacin], for which, for the setting “in vivo”, the bioavailability is reported as 99% and the route of excretion entry was “via urine”.
